Results on twelve molecules are retold here after patent publication US5536737A, “Compound having prolyl endopeptidase inhibitory activity and pharmaceutical use thereof” (Japan Tobacco Inc., priority 1992, dated 1996).

Assay type in all cases: biochemical
One assay deals with leucine aminopeptidase. Description: Leucine aminopeptidase-inhibitory activity. Conditions: concentration 0.1 μM; swine kidney, pH 8.0. The procedure:
(§1) Inhibitory activity against various proteases
(§2) The compound of the present invention having predetermined concentrations was tested for the specificity of the inhibitory activity against various proteases according to a known test method.
(§3) The methods for the determination of the inhibitory activity against various proteases other than prolyl endopeptidase and the method for calculating the inhibition are as follows.
Determination of leucine aminopeptidase-inhibitory activity
In completely the same manner as above, respective fluorescence (d1, d2 and d3) was determined using a 50 mM Tris-HCl buffer (pH 8.0) as a buffer for determination, a 0.2 μM solution of leucine aminopeptidase (derived from swine kidney, Sigma) in the same buffer as an enzyme solution and a 200 μM solution of 7-leucyl-4-methyl-coumarinamide (Peptide Institute, Inc.) in the same buffer as a substrate solution.
(§4) Using the fluorescence x1, x2 and x3 wherein x is b, c, d, e or f, measured in the above-mentioned manner, the inhibition against various proteases was calculated by the following formula: [formula]

For another assay, the target named is T1, elastase (Sus scrofa, UniProt P00772).
T1 construct: purchased Sigma; host or cells: swine pancreas
Description: Elastase-inhibitory activity. Conditions: concentration 0.1 μM; swine pancreas, pH 8.5. As to the method:
as §1, §2, §3
Determination of elastase-inhibitory activity
In completely the same manner as above, respective fluorescence (e1, e2 and e3) was determined using a 1 mM Tris-HCl buffer (pH 8.5) as a buffer for determination, a 0.2 μM solution of elastase (derived from swine pancreas, Sigma) in the same buffer as an enzyme solution and a 200 μM solution of 7-(N-succinyl-aranyl-prolyl-aranyl)-4-methylcoumarinamide (Peptide Institute, Inc.) in the same buffer as a substrate solution.
as §4

The target of a further assay is T2, cathepsin B (Bos taurus, UniProt P07688).
T2 construct: purchased Sigma; host or cells: bovine spleen
Description: Cathepsin B-inhibitory activity. Conditions: concentration 0.1 μM; bovine spleen, pH 6.0. As to the method: as §1, §2, §3
Determination of cathepsin B-inhibitory activity
In completely the same manner as above, respective fluorescence (f1, f2 and f3) was determined using a 100 mM sodium phosphate buffer (pH 6.0; containing 1.33 mM EDTA Na2) as a buffer for determination, a 0.02 μM solution of cathepsin B (derived from bovine spleen, Sigma) in the same buffer as an enzyme solution and a 200 μM solution of 7-(N-benzyloxy-carbonyl-phenylaranyl-arginyl)-4-methylcouma-rinamide (Peptid Institute, Inc.) in the same buffer as a substrate solution.
as §4

A further assay concerns the target T3, prolyl endopeptidase (Rattus norvegicus, UniProt O70196).
T3 construct: prolyl endopeptidase extracted from rat brain; from tissue; host or cells: rat brain
T3 sequence (O70196 1-710): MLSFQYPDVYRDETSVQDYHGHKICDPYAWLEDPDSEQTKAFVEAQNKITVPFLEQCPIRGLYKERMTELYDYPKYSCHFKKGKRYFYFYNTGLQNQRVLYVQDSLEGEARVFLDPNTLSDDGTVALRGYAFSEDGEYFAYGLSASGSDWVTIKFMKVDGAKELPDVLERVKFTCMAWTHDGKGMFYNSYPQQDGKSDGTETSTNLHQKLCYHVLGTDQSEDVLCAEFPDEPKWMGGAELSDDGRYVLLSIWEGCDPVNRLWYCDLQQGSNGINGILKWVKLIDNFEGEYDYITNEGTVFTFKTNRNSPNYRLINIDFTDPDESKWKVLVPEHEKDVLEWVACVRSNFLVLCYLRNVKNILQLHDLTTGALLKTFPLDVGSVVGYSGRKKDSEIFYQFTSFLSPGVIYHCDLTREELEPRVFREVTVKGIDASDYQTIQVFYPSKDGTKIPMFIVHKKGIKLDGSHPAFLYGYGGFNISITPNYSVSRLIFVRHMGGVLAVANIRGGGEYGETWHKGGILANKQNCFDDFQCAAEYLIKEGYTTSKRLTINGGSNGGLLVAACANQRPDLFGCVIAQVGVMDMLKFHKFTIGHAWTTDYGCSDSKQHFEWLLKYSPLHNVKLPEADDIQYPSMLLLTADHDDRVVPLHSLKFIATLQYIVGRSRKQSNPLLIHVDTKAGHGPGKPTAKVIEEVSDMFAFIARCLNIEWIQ
Description: Prolyl endopeptidase-inhibitory activity. The settings on record: for inhibition at 0.1 µM: read-out: inhibition of prolyl endopeptidase. As to the method: Prolyl endopeptidase-inhibitory activity
A mixture of a 0.1M potassium-sodium phosphate buffer (pH 7.0, 2675 μl ), a solution of the compound of the present invention in a 0.1M potassium-sodium phosphate buffer (pH 7.0, 100 μl ) and a solution of prolyl endopeptidase extracted from rat brain in a 25 mM sodium phosphate buffer (100 μl ) [123 unit/1, pH 6.8, containing 1 mM dithiothreitol and 0.5 mM EDTA, prepared by the method described in J. Neurochem., 35, 527 (1980)] was preincubated at 30° C. for 30 minutes. Thereto was added a 0.2 mM solution of 7-(N-succinyl-glycyl-prolyl)-4methylcoumarinamide (Peptide Institute, INC.) in a 0.1M potassium-sodium phosphate buffer (pH 7.0, 125 μl), and the mixture was incubated at 30° C. for 1 hour. The reaction mixture was immersed in ice (0° C.) to terminate the reaction, and the fluorescence (a1) was determined ten minutes later (excitation at 370 nm and emission at 440 nm). Concurrently, an experiment wherein, in the above system, the prolyl endopeptidase solution was substituted for a 25 mM sodium phosphate buffer (pH 6.8, containing 1 mM dithiothreitol and 0.5 mM EDTA) and an experiment wherein the solution of the compound of the present invention was substituted for a 0.1M potassium-sodium phosphate buffer (pH 7.0) were conducted. Each fluorescence (a2 and a3) was determined [See Tanpakushitsu Kakusan Koso, 29, 127 (1984)]. The prolyl endopeptidase inhibition was calculated by the following formula, and IC50, a concentration necessary for 50% inhibition, was estimated by using a semilogarithmic graph paper. [formula]

Another assay deals with T4, trypsin (Bos taurus, UniProt P00760).
T4 construct: purchased Sigma; host or cells: bovine pancreas
T4 sequence (P00760 24-246): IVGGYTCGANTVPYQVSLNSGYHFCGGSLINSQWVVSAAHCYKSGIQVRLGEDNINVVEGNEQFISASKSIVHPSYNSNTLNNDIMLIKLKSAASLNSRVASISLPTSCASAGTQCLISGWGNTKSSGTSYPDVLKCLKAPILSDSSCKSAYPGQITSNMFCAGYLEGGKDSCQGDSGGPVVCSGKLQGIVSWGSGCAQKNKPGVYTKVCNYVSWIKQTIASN
Description: Trypsin-inhibitory activity. Conditions: concentration 0.1 μM; bovine pancreas, pH 8.0. As to the method:
as §1, §2, §3
Determination of trypsin-inhibitory activity
In the present invention, a 50 mM Tris-HCI buffer (pH 8.0) was used as a buffer for measurement.
To a mixture of the above-mentioned buffer (850 μl ), a solution of the compound of the present invention in the same buffer (50 μl ) and a 0.02 μM solution of trypsin (derived from bovine pancreas, Sigma) in the same buffer (50 μl ) was added a 200 μM solution of 7-(prolyl-phenylaranyl-arginyl)-4methylcoumarinamide (Peptide Institute, Inc.) in the same buffer (50 μl), and the mixture was incubated at 30° C. for 1 hour. The reaction mixture was immersed in ice (0° C.) to terminate the reaction, and the fluorescence (b1) was determined 1 hour later (excitation at 370 nm and emission at 440 nm). Concurrently, an experiment wherein, in the system above, the trypsin solution was substituted for a buffer and an experiment wherein the solution of the compound of the present invention was substituted for said buffer were conducted. Each fluorescence (b2 and b3) was determined.
as §4

The target in the next assay is T5, chymotrypsin (Bos taurus, UniProt P00766).
T5 construct: purchased Sigma; host or cells: bovine pancreas
Description: Chymotrypsin-inhibitory activity. The settings on record: concentration 0.1 μM; bovine pancreas, pH 8.0. As to the method:
as §1, §2, §3
Determination of chymotrypsin-inhibitory activity
In completely the same manner as above, respective fluorescence (c1, c2 and c3) was determined using a 50 mM Tris-HCl buffer (pH 8.0) as a buffer for determination, a 0.2 μM solution of chymotrypsin (derived from bovine pancreas, Sigma) in the same buffer as an enzyme solution, and a 200 μM solution of 7-(N-succinyl-leucyl-leucyl-varyl-tyrosyl)-4-methylcoumarinamide (Peptide Institute, Inc.) in the same buffer as a substrate solution.
as §4

Where two headings read alike, the source gives them in different places.

T1 sequence (P00772 27-266): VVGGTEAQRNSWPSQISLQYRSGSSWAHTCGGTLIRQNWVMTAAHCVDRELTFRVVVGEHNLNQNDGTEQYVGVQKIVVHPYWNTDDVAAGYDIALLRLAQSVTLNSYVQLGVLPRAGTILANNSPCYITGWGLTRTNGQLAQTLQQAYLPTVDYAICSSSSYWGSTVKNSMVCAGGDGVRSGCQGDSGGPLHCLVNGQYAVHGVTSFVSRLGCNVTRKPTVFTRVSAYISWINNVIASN

As to `O=C(OCC(=O)[C@@H]1CCCN1C(=O)[C@@H]1CCCN1C(=O)NCc1ccccc1)c1ccccc1` [Compound 3], in the assay with leucine aminopeptidase, the inhibition of leucine aminopeptidase is 0%. Besides, the inhibition at 0.1 µM against elastase was 0%; against cathepsin B, 0%; on prolyl endopeptidase it was 98%; against trypsin, 0%; at chymotrypsin it was 0%. It took 0.1 nM to reach half-maximal inhibition against prolyl endopeptidase (IC50).
In turn, `COc1ccc(CNC(=O)N2CCC[C@H]2C(=O)N2CCC[C@H]2C(=O)CO)cc1` [Compound 6, (S)-2-[[(S)-2-(Hydroxyacetyl)-1-pyrrolidinyl]carbonyl]-N-[(4methoxyphenyl)methyl]-1-pyrrolidinecarboxamide] had an inhibition of leucine aminopeptidase with leucine aminopeptidase of 0%. Further, the inhibition at 0.1 µM against elastase was determined as 0%; against cathepsin B it was 0%; at prolyl endopeptidase, 100%; at trypsin it was 0%; against chymotrypsin it was 0%. At prolyl endopeptidase, this molecule registered an IC50 of 0.7 nM.
As to `O=C(CO)[C@@H]1CCCN1C(=O)[C@@H]1CCCN1C(=O)NCCc1ccccc1` [Compound 5, (S)-2-[[(S)-2-(Hydroxyacetyl)-1-pyrrolidinyl]carbonyl]-N-(2-phenylethyl)-1-pyrrolidinecarboxamide], in the assay with leucine aminopeptidase, the inhibition of leucine aminopeptidase is 0%. Moreover, the inhibition at 0.1 µM against elastase turned out to be 0%; against cathepsin B, 0%; on prolyl endopeptidase, 100%; against trypsin it was 0%; at chymotrypsin it was 0%. Half-maximal inhibition on prolyl endopeptidase (IC50) was put at 0.3 nM.
In the assay with leucine aminopeptidase, `O=C(CO)[C@@H]1CCCN1C(=O)[C@@H]1CCCN1C(=O)NCc1ccccc1` [Compound 2, (S)-2-[[(S)-2-(Hydroxyacetyl)-1-pyrrolidinyl]carbonyl]-N-(phenylmethyl)-1-pyrrolidinecarboxamide] came in with an inhibition of leucine aminopeptidase of 0%. For the same molecule, the inhibition at 0.1 µM against elastase was found to be 0%; at cathepsin B, 0%; on prolyl endopeptidase (concentration 0.1 μM) it was 98%; against trypsin, 0%; against chymotrypsin, 0%.
As to `CC(C)(C)C(=O)OCC(=O)[C@@H]1CCCN1C(=O)[C@@H]1CCCN1C(=O)NCc1ccccc1` [Compound 4, (S)-N-(Phenylmethyl)-2-[[(S)-2-(pivaloyloxyacetyl)-1-pyrrolidinyl]carbonyl]-1-pyrrolidinecarboxamide], in the assay on leucine aminopeptidase, the inhibition of leucine aminopeptidase was 0%. The inhibition at 0.1 µM against elastase is 0%; against cathepsin B it was 0%; on prolyl endopeptidase it was 97%; on trypsin it was 0%; on chymotrypsin, 0%. Further, the IC50 on prolyl endopeptidase is 1 nM.
For `CC(=O)OCC(=O)[C@@H]1CCCN1C(=O)[C@@H]1CCCN1C(=O)NCc1ccc(Cl)cc1` [Compound 15, (S)-2-[[(S)-2-(Acetoxyacetyl)-1-pyrrolidinyl]carbonyl]-N(4-chlorophenylmethyl)-1-pyrrolidinecarboxamide], the IC50 against prolyl endopeptidase amounted to 2 nM.
Same read-out and setting: to `COc1ccc(OCC(=O)N2CCC[C@H]2C(=O)N2CCC[C@H]2C(=O)COC(=O)C(C)(C)C)cc1` [Compound 10, (S)-1-[(4-Methoxyphenyl)oxyacetyl]-2-[[(S)-2-(pivaloyloxyacetyl)1-pyrrolidinyl]carbonyl]pyrrolidine] belongs 10 nM.
Still for that read-out and setting: the value for `CCCCCCCC(=O)N1CCC[C@H]1C(=O)N1CCC[C@H]1C(=O)COC(=O)c1ccccc1` [Compound 13, (S)-2-[[(S)-2-(Benzoyloxyacetyl)-1-pyrrolidinyl]carbonyl]-1-octanoylpyrrolidine] was 8 nM.
Same read-out and setting: to `CCCCCCCC(=O)N1CCC[C@H]1C(=O)N1CCC[C@H]1C(=O)CO` [Compound 11, (S)-2-[[(S)-2-(Hydroxyacetyl)-1-pyrrolidinyl]carbonyl]-1-octanoylpyrrolidine] belongs 0.4 nM; to `O=C(CO)[C@@H]1CCCN1C(=O)[C@@H]1CSCN1C(=O)OCc1ccccc1` [Compound 14, (R)-4-[[(S)-2-(Hydroxyacetyl)-1-pyrrolidinyl]carbonyl]-3(phenylmethyloxycarbonyl)thiazolidine], 1 nM.
The molecule `CCCCCCCC(=O)N1CCC[C@H]1C(=O)N1CCC[C@H]1C(=O)COC(C)=O` [Compound 12, (S)-2-[[(S)-2-(Acetoxyacetyl)-1-pyrrolidinyl]carbonyl]-1-octanoylpyrrolidine] showed an IC50 against prolyl endopeptidase of 2 nM.
Same read-out and setting: to `COc1ccc(OCC(=O)N2CCC[C@H]2C(=O)N2CCC[C@H]2C(=O)CO)cc1` [Compound 9, (S)-2-[[(S)-2-(Hydroxyacetyl)-1-pyrrolidinyl]carbonyl]-1-[(4methoxyphenyl)oxyacetyl]pyrrolidine] belongs 2 nM.

In general, inhibition refers to how much of the control response was suppressed. Broadly, the IC50 is the midpoint of a concentration-inhibition curve. The low end stands for greater potency, the high end for weaker potency.
